Laboratory results from patent US11401253B2, “16-methyl-oxacyclohexadecan-2-one and 16-methyl-azacyclohexadecan-2-one derivatives as antimicrobial agents” (THE UNIVERSITY OF MONTANA, priority 2017, dated 2022).
Converted amounts (≈) assume the structure as drawn. “And” between values parts separate entries of the source, which are not always exact repeats. Equal entries are not always repeated. Where two headings read alike, the source gives them in different places.

Tests used:
Vero cell = assay: Cytotoxicity (MTS), Vero cells; type: cell-based, monkey; settings: Primates, 72 hours exposure
S. aureus CAIRD142 = assay: Antibiotic testing, methicillin-resistant S. aureus CAIRD142; type: cell-based; settings: methicillin-resistant strain; for MIC: Staphylococcus aureus, CAIRD142
Text: (§1) Both the methyl ester and the diacetate derivatives of BPL 76 slightly less but still very strong activity against the same four MRSA strains (Table 11). The activities of compounds BPL 76 and BPL 81 were compared to several known antibiotics against three methicillin-resistant strains of S. aureus [FIG. 6, comparative data provided by Hartford Hospital, Center for Anti-Infective Research and Development (CAIRD)].

J774 = assay: Cytotoxicity (MTS), J774 cells; type: cell-based, murine; settings: Mus musculus, 72 hours exposure
[1] = system: Staphylococcus aureus (13709); assay: Antibiotic testing (MIC), S. aureus 13709; type: cell-based; settings: growth inhibition ≥90% relative to drug-free controls, read-out: minimum inhibitory concentration, Staphylococcus aureus (13709)
S. aureus CAIRD148 = assay: Antibiotic testing, methicillin-resistant S. aureus CAIRD148; type: cell-based; settings: methicillin-resistant strain; for MIC: Staphylococcus aureus, CAIRD148
Text: as §1

HepG2 = assay: Cytotoxicity (MTS), HepG2 cells; type: cell-based; settings: Homo sapiens, 72 hours exposure
P. aeruginosa = assay: Antibiotic testing (MIC), gram negative P. aeruginosa; type: cell-based
Method: (§2) None of this collection of compounds were active against Gram-negative bacteria
(§3) Additionally, BPL 76 and derivatives were tested against a panel of gram negative bacteria including K. pneumonia, P. aeruginosa and E. coli (Table 12).

Bacillus subtilis = assay: Antibiotic testing (MIC), Bacillus subtilis; type: cell-based; settings: growth inhibition ≥90%, read-out: minimum inhibitory concentration, Bacillus subtilis
E. coli (25922) = assay: Antibiotic testing (MIC), gram negative E. coli; type: cell-based
Method: as §2, §3

S. aureus CAIRD116 = assay: Antibiotic testing, methicillin-resistant S. aureus CAIRD116; type: cell-based; settings: methicillin-resistant strain; for MIC: Staphylococcus aureus, CAIRD116
Text: as §1

C. albicans = assay: Antibiotic testing (MIC), C. albicans; type: cell-based; settings: Candida albicans; growth inhibition ≥90%; read-out: minimum inhibitory concentration, C. albicans
Candida glabrata = assay: Antibiotic testing (MIC), Candida glabrata; type: cell-based; settings: Nakaseomyces glabratus; growth inhibition ≥90%; read-out: minimum inhibitory concentration, Candida glabrata
S. aureus (NE277) = assay: Antibiotic testing, methicillin-resistant S. aureus NE277; type: cell-based; settings: for MIC: Staphylococcus aureus, read-out: antibiotic testing data (MIC), S. aureus (NE277); for antibiotic testing data (MIC), S. aureus (NE277): methicillin-resistant strain
Text: as §1

Streptococcus pyogenes = assay: Antibiotic testing (MIC), Streptococcus pyogenes; type: cell-based; settings: growth inhibition ≥90%, read-out: minimum inhibitory concentration, Streptococcus pyogenes
B. anthracis = assay: microbe, parasite or virus in culture; type: cell-based; settings: Bacillus anthracis, read-out: minimum inhibitory concentration, B. anthracis
[2] = system: non-replicating persistence Mycobacterium tuberculosis (NRP-TB); assay: Low oxygen recovery assay (LORA), non-replicating persistence Mtb; type: cell-based; settings: Mycobacterium tuberculosis, read-out: MIC, LORA
[3] = system: Mycobacterium tuberculosis; assay: microbe, parasite or virus in culture; settings: read-out: MIC, MABA
K. pneumoniae (10031) = assay: Antibiotic testing (MIC), gram negative K. pneumoniae; type: cell-based
Method: as §2, §3

MMP-3 = target: T1, MMP-3 (Homo sapiens, UniProt P08254); assay: MMP-3 enzyme inhibition assay; type: biochemical
T1 construct: purchased BioMol
T1 sequence (P08254 100-477): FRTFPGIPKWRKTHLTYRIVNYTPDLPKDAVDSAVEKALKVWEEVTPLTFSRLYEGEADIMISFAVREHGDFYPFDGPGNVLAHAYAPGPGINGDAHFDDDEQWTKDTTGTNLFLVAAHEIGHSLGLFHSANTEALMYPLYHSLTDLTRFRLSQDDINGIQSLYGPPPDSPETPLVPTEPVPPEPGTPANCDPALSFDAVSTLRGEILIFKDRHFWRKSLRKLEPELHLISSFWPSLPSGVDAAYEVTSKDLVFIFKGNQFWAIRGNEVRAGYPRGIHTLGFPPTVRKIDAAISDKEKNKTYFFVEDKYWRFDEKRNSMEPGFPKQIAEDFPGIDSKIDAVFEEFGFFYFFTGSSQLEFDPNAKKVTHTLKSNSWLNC
Method: The two fungi were also co-cultured under controlled conditions. P. fuscum was grown in pure culture in potato dextrose broth (10×400 mL). After 24 h, an agar cube (8 mm^3) impregnated with P. camembertii/clavigerum mycelium was added to each flask and the resulting co-culture was shaken for 6 more days (200 rpm, room temperature). At time of harvest, methanol (50 mL/flask) was added, the mycelia were removed by gravity filtration and the broth was extracted with chloroform (3×2 L). The chloroform was removed in vacuo to yield 663 mg of crude extract. The crude extract was verified to be active in the MMP-3, caspase-1 and caspase-3 enzyme inhibition assays. Enzyme inhibitory activity was determined using specific BioMol enzyme inhibition assay kits for drug discovery as described in Stierle, A; Stierle, D. The Berkeleylactones, Antibiotic Macrolides from Fungal Coculture. J. Nat. Prod. 80, 4, 1150-1160.

[4] = Pseudomonas aeruginosa; read-out: MIC, P. aeruginosa
[5] = Escherichia coli; read-out: MIC, E. coli (25922)
[6] = non-replicating persistence, hypoxic conditions
[7] = Klebsiella pneumoniae; read-out: MIC, K. pneumoniae (10031)

Structure (SMILES)	IC50 (Vero cell) [µg/mL]	MIC (S. aureus CAIRD142) [µg/mL]	antibiotic testing data (MIC), S. aureus CAIRD142 (S. aureus CAIRD142) [µM]	IC50 (J774) [µg/mL]	MIC [1] [µg/mL]	MIC (S. aureus CAIRD148) [µg/mL]	antibiotic testing data (MIC), S. aureus CAIRD148 (S. aureus CAIRD148) [µM]	IC50 (HepG2) [µg/mL]	MIC (P. aeruginosa; [4]) [µM]	MIC (Bacillus subtilis) [µg/mL]	MIC (E. coli (25922); [5])	MIC (S. aureus CAIRD116) [µg/mL]	antibiotic testing data (MIC), S. aureus CAIRD116 (S. aureus CAIRD116) [µM]	MIC (C. albicans) [µg/mL]	MIC (Candida glabrata) [µg/mL]	MIC (S. aureus (NE277)) [µg/mL]	antibiotic testing data (MIC), S. aureus (NE277) (S. aureus (NE277)) [µM]	MIC (Streptococcus pyogenes) [µg/mL]	MIC (B. anthracis) [µg/mL]	MIC [3]	other results
C[C@@H]1CCCCCCCCC[C@H](OC(=O)CCC(=O)O)C(=O)/C=C/C(=O)O1 [BPL 81, 4-(((6S,16R,E)-16-methyl-2,5-dioxooxacyclohexadec-3-en-6-yl)oxy)-4-oxobutanoic acid]	55.7 (≈ 146 µM)	6 (≈ 15.7 µM)	16	37.2 (≈ 97.3 µM)	3 (≈ 7.84 µM)	6 (≈ 15.7 µM)	16	> 100	> 250	12 (≈ 31.4 µM)	> 250 µM	6 (≈ 15.7 µM)	16	96 (≈ 251 µM)	48 (≈ 126 µM)	6 (≈ 15.7 µM)	16	48 (≈ 126 µM)	6 (≈ 15.7 µM)	47 µg/mL	MIC [2, 6]: > 100 µg/mL; MIC (K. pneumoniae (10031); [7]): > 250 µM
O=C(O)CCC(=O)O[C@H]1CCCCCCCCC[C@@H](CO)OC(=O)/C=C/[C@H]1O [BPL 98, 4-(((5R,6S,16S,E)-5-hydroxy-16-(hydroxymethyl)-2-oxooxacyclohexadec-3-en-6-yl)oxy)-4-oxobutanoic acid]	–	> 100	>250	–	> 100	> 100	>250	–	–	> 100	–	> 100	>250	> 100	> 100	> 100	>250	> 100	> 100	–	MMP-3 inhibition (MMP-3): weaker inhibitors
COc1nc2ccc(Br)cc2cc1[C@@H](c1ccccc1)[C@@](O)(CCN(C)C)c1cccc2ccccc12 [TMC207, reference compound]	> 10	–	–	> 10	–	–	–	> 10	–	–	–	–	–	–	–	–	–	–	–	> 0.1 µM	MIC [2]: 0.1 µM
Cc1ncc([N+](=O)[O-])n1CCO [MET - Metronidazole, Metronidazole, reference compound]	–	–	–	–	–	–	–	–	–	–	–	–	–	–	–	–	–	–	–	–	MIC ([2]; non-replicating persistence conditions, known antibiotics): 449 µM
CC(=O)O[C@H]1CCCCCCCC[C@H](OC(C)=O)[C@H](OC(C)=O)/C=C/C(=O)O[C@@H]1C [BPL 79 Ac, (2R,3S,12S,13R,E)-2-methyl-16-oxooxacyclohexadec-14-ene-3,12,13-triyl triacetate]	–	–	–	–	–	–	–	–	> 500	–	> 500 µM	–	–	–	–	–	–	–	–	–	MIC (K. pneumoniae (10031); [7]): > 500 µM
C[C@@H]1CCCCCCCCC[C@H](O)[C@H](OC(=O)CCC(=O)O)/C=C/C(=O)O1 [BPL 96, 4-(((5R,6S,16R,E)-6-hydroxy-16-methyl-2-oxooxacyclohexadec-3-en-5-yl)oxy)-4-oxobutanoic acid]	–	–	–	–	48 (≈ 125 µM)	–	–	–	–	48 (≈ 125 µM)	–	–	–	> 96	> 96	–	–	> 96	> 96	–	–
C[C@H]1OC(=O)/C=C/C(=O)[C@@H](OC(=O)CCC(=O)O)CCCCCCCC[C@@H]1O [BPL 77, 4-(((6S,15S,16R,E)-15-hydroxy-16-methyl-2,5-dioxooxacyclohexadec-3-en-6-yl)oxy)-4-oxobutanoic acid]	–	–	–	–	–	–	–	–	> 1000	–	500 µM and 199 µg/mL	–	–	–	–	–	–	–	–	–	activity against E. coli (in words) (E. coli (25922)): weakly active; activity against K. pneumonia (in words) (K. pneumoniae (10031)): weakly active; MIC (K. pneumoniae (10031); [7]): 1000 µM and 398 µg/mL
C[C@@H]1CCCCCCCCCC[C@H](O)/C=C/C(=O)O1 [BPL 94, (5S,16R,E)-5-hydroxy-16-methyloxacyclohexadec-3-en-2-one]	43.8 (≈ 163 µM)	–	–	40.7 (≈ 152 µM)	34 (≈ 127 µM)	–	–	85.2 (≈ 317 µM)	–	34 (≈ 127 µM)	–	–	–	> 67	> 67	–	–	67 (≈ 250 µM)	34 (≈ 127 µM)	39 µg/mL	MIC [2, 6]: 20 µg/mL
C[C@H]1OC(=O)/C=C/[C@@H](O)[C@@H](OC(=O)CCC(=O)O)CCCCCCCC[C@@H]1O [BPL 86, 4-(((5R,6S,15 S,16R,E)-5,15-dihydroxy-16-methyl-2-oxooxacyclohexadec-3-en-6-yl)oxy)-4-oxobutanoic acid]	–	47 (≈ 117 µM)	125	–	24 (≈ 59.9 µM)	47 (≈ 117 µM)	125	–	–	> 50	–	47 (≈ 117 µM)	125	> 50	> 50	47 (≈ 117 µM)	125	> 50	24 (≈ 59.9 µM)	–	MIC (P. aeruginosa; Pseudomonas aeruginosa, read-out: MIC, P. aeruginosa): > 125 µM; MIC (E. coli (25922); Escherichia coli, read-out: MIC, E. coli (25922)): > 125 µM; MMP-3 inhibition (MMP-3): weaker inhibitors; MIC (K. pneumoniae (10031); Klebsiella pneumoniae, read-out: MIC, K. pneumoniae (10031)): > 125 µM
